Laboratory results published in publication PMC12274739, “Differential substrate degradation by super-degron: EGFP in wild-type mouse cells, PD-1 requires CRBN humanization” (iScience, 2025).

Tests used:
[1] = Histopathological examination of organs; type: in vivo, mouse; settings: Pdcd1SD/SD/CrbnI391V/I391V mice with MC-38 inoculation and IBR treatment
Experimental: The important functions of PD-1 are to suppress autoimmunity, and depletion or suppression of PD-1 leads to autoimmune diseases.[37]
Mice were sacrificed under deep anesthesia then all organs were isolated and immediately immersed in 10% buffered neutral formalin. After fixation for 48 h, tissues were processed as formalin-fixed paraffin-embedded blocks and sliced into 3 μmμ sections, followed by hematoxylin and eosin (HE) staining, periodic acid Schiff (PAS) staining, and Elastica-Masson Goldner staining. All slides were analyzed by a skilled pathologist (T.M.). Glomerular lesions were evaluated using the histological glomerular index, and other organs were scored from 0 (normal) to 3 (necrotic, severe organ injury).
Figure S11 Histological analysis of super degron tag-knockin mice for autoimmune […]
Representative histological manifestations of kidney (A-C), liver (D-F) and large intestine (G-I) of Pdcd1SD/SD/CrbnI391V/I391V mice (A, D and G), Pdcd1+/+/CrbnI391V/I391V mice (B, E and H) and […]
Liver and large intestine manifested normal histological findings in each group (A-C: PAS stain, d-i: HE stain, Bar = 25 µm in A-C, 100 µm in D-I).
(1 picture or pasted object on this page, not shown here)
Figure S12 Glomerular index of super degron tag-knockin mice
Glomerular index of each group of mice. […]
higher index nevertheless there were no statistically significant differences among

[2] = system: Ba/F3 mouse pro-B cell line; parameters: method as in PMID 38484051; settings: cited from earlier work

Structure (SMILES)	histopathological organ injury [1]	proteins reduced [2]
O=C1CC[C@H](N2Cc3c(OCc4ccc(CN5CCOCC5)cc4)cccc3C2=O)C(=O)N1 [IBR, iberdomide]	no significant organ injury	–
Nc1cccc2c1C(=O)N(C1CCC(=O)NC1=O)C2=O (centres unmarked) [POM, pomalidomide]	–	very few proteins
